Assay results from US20170105981A1, “METHODS FOR STABILIZING HYPOXIA INDUCIBLE FACTOR-2 ALPHA AS A METHOD FOR TREATING CANCER” (The Ohio State Innovation Foundation, priority 2011, published 2017).

Columns and labels:
VEGF = VEGF production by human peripheral blood monocytes (ELISA, real-time PCR); format: cell-based; settings: FIG. 11C
Protocol: (§1) Human peripheral blood mononuclear cells (PBMCs) were isolated from fresh peripheral blood leukocyte source packs (American Red Cross, Columbus Ohio) by density gradient centrifugation over Lymphocyte Separation Medium (Cellgro). Monocytes were purified from total PBMCs by layering over FBS. Monocytes were cultured in endotoxin-free RPMI-1640 supplemented with 1% fetal bovine serum (FBS), 0.1% human serum albumin (HSA), and 10 μg/mL of the endotoxin inhibitor polymyxin B. In some experiments, freshly isolated monocytes were differentiated into macrophages by three-day culture in media containing 10% FBS, 1% PSA (penicillin G sodium, streptomycin sulfate, and amphotericin B), and 20 ng/mL M-CSF. Macrophages were serum-starved for 2 hours prior to stimulation. Monocytes or monocyte-derived macrophages were treated for 24 hours with 10 ng/mL GM-CSF, 10 μM disclosed HIF-2α stabilizer, or an equivalent volume of the vehicle controls (PBS or DMSO, respectively). Cell-free culture supematants were harvested and analyzed for VEGF or sVEGFR-1 by ELISA (R&D Systems).
Human monocytes were left untreated or were stimulated with 100 ng/mL GM-CSF at normoxia or at 0.5% O2. At various time-points, cells were harvested in Trizol reagent (Invitrogen) and RNA was extracted in chloroform and then purified using the RNeasy Minikit (Qiagen). In murine studies, organs harvested at the time of euthanasia were flash-frozen in liquid nitrogen, pulverized in liquid nitrogen, and then dissolved in Trizol. cDNA was generated from 1 μg of RNA using the Superscript First Strand Synthesis System (Invitrogen) and used for real-time PCR using previously described primers and SYBR Green PCR Master Mix (Applied Biosciences), according to the manufacturer's instructions. Data were analyzed according to the comparative threshold method and normalized against the β-actin internal control transcript. Results are semi-quantitative and represent the fold difference in transcript levels in a particular sample as compared with levels in untreated cells from the same donor. […]

sVEGFR-1 = sVEGFR-1 production by human peripheral blood monocytes (ELISA, real-time PCR); format: cell-based; settings: monocytes stimulated with GM-CSF alone; FIG. 11D
Protocol: as §1
(§2) Human monocytes were left untreated or were stimulated with 100 ng/mL GM-CSF at normoxia or at 0.5% O2. At various time-points, cells were harvested in Trizol reagent (Invitrogen) and RNA was extracted in chloroform and then purified using the RNeasy Minikit (Qiagen). In murine studies, organs harvested at the time of euthanasia were flash-frozen in liquid nitrogen, pulverized in liquid nitrogen, and then dissolved in Trizol. cDNA was generated from 1 μg of RNA using the Superscript First Strand Synthesis System (Invitrogen) and used for real-time PCR using previously described primers and SYBR Green PCR Master Mix (Applied Biosciences), according to the manufacturer's instructions. Data were analyzed according to the comparative threshold method and normalized against the β-actin internal control transcript. Results are semi-quantitative and represent the fold difference in transcript levels in a particular sample as compared with levels in untreated cells from the same donor.

[1] = test system: B16F10 murine melanoma cells; test: Murine melanoma tumor model (B16F10 in C57BL/6 mice); format: in vivo
Protocol: Mice were injected with 1×10^5 B16F10 murine melanoma cells murine subcutaneously on the left flank. Once tumors become palpable (approximately 5 days), mice were randomly allocated to receive treatment with either: 20% polyethylene glycol (PEG) in 5% […] (vehicle control for the disclosed HIF-2α stabilizer) and PBS (vehicle control for GM-CSF), 20% PEG and GM-CSF (100 ng per mouse in a 50 μL volume), the disclosed HIF-2α stabilizer (17.5 mg/kg in a 100 μL volume) and PBS, or the disclosed HIF-2α stabilizer and GM-CSF (same doses). The PBS and GM-CSF were administered intratumorally, while the 20% PEG and the disclosed HIF-2α stabilizer were administered intraperitoneally. Mice were treated 3 times per week until tumors reached a size of 20 mm in any dimension (approximately 2.5 weeks), at which point mice were euthanized, in accordance with institutional policy. Tumor diameters were measured 3 times per week with calipers, and tumor volumes were calculated as follows: Tumor volume=0.5×[(large diameter)×(small diameter)^2].
6-8-week-old C57BL/6 mice were injected with 1×10^5 B16F10 murine melanoma cells murine subcutaneously on the left flank. Once tumors become palpable (approximately 5 days), mice were randomly allocated to receive treatment with either: 20% PEG-400 in 5% sucrose (vehicle for disclosed HIF-2α stabilizer) and PBS (vehicle for GM-CSF), 20% PEG-400 and GM-CSF (100 ng per mouse in a 50 μL volume), disclosed HIF-2α stabilizer (17.5 mg/kg mouse weight in a 100 μL volume) and PBS, or the disclosed HIF-2α stabilizer and GM-CSF (same concentrations). The disclosed HIF-2α stabilizer (or the vehicle control) was administered intraperitoneally, while GM-CSF (or the vehicle control) was administered intratumorally. Mice were treated […] 3 times per week until tumors reached a size of 20 mm in any dimension (approximately 2.5 weeks), at which point mice were be euthanized, in accordance with institutional policy. Tumor diameters were measured 3 times per week with calipers, and tumor volumes will be calculated as follows: Tumor volume=0.5×[(large diameter)×(small diameter)^2]. For experiments analyzing the effect of neutralizing sVEGFR-1 in combination with disclosed HIF-2α stabilizer treatment, mice were treated intraperitoneally 3×/week with either disclosed HIF-2α stabilizer or vehicle control, and intratumorally with either 4 μg anti-VEGFR-1 neutralizing antibody (R&D Systems) or 4 μg polyclonal goat IgG isotype control (Santa Cruz Biotechnology) in a 50 μL volume. All protocols were approved by the Ohio State University Animal Care and Use Committee, and mice were treated in accordance with institutional guidelines for animal care.
The ANOVA test was used to compare independent measurements between multiple treatment groups. The data was log-transformed to normalize the variance across groups. P-values were adjusted using the Holm's procedure to conserve the type I error at 0.05 due to the multiple comparisons. For tumor growth data, changes in tumor volume over time were assessed via a longitudinal model. Tumor values were log-transformed, and estimated slopes (changes in tumor volume over time) were calculated with 95% confidence intervals. Estimated differences in tumor volume were calculated by a random-effects regression of the longitudinal data. For all analyses, p≦0.05 was considered statistically significant.
6-8-week-old C57BL/6 mice or SCID mice were injected with 1×10^5 B16F10 murine melanoma cells or 1×10^6 A375 human melanoma cells, respectively, subcutaneously on the left flank. […]

VEGF mRNA = test: Real-time PCR of VEGF mRNA within B16F10 tumors; format: in vivo, mice; settings: p=0.490, FIG. 13B
Protocol: as §2
6-8-week-old C57BL/6 mice were injected with 1×10^5 B16F10 murine melanoma cells murine subcutaneously on the left flank. […] Tumor diameters were measured 3 times per week with calipers, and tumor volumes will be calculated as follows: Tumor volume=0.5×[(large diameter)×(small diameter)^2]. […]

[2] = test system: A375 human melanoma cells; test: A375 human melanoma tumors in SCID mice; format: in vivo; settings: at the time of sacrifice; stabilizer 17 mg/kg, docetaxel 1 mg/kg, IP 3 times per week
Protocol: 6-8-week-old C57BL/6 mice or SCID mice were injected with 1×10^5 B16F10 murine melanoma cells or 1×10^6 A375 human melanoma cells, respectively, subcutaneously on the left flank. […] Tumor diameters were measured 3 times per week with calipers, and tumor volumes will be calculated as follows: Tumor volume=0.5×[(large diameter)×(small diameter)^2].
In the study, immunocompromised SCID mice were inoculated with A375 human melanoma tumors subcutaneously. Starting when the tumors became palpable (7 days after injection), mice were treated with either the cytotoxic chemotherapy docetaxel or with the disclosed HIF-2α stabilizer. The disclosed HIF-2α stabilizer was given at a dose of 17 mg/kg, and the docetaxel was given at 1 mg/kg. Both drugs were given IP 3 times per week. […] At the time of sacrifice, the tumors in the mice that received only the disclosed HIF-2α stabilizer were approximately 78% of the size of the control tumors, the tumors of the mice that received only chemotherapy were approximately 50% of the size of the control tumors, and the tumors of the mice that received both drugs were approximately 16% of the size of the control tumors.

| Molecule | VEGF protein in supernatants (free VEGF ELISA) (VEGF; GM-CSF-stimulated monocytes, VEGF neutralized by sVEGFR-1) | VEGF transcript levels (VEGF; monocytes stimulated with GM-CSF alone) | monocyte production of sVEGFR-1 (sVEGFR-1) | tumor volume reduction, GM-CSF given I.T. vs I.P. ([1]; B16F10 melanoma, stabilizer 17 mg/kg I.P. in all cases, no control group, FIG. 4) | tumor growth / tumor volume ([1]; B16F10 melanoma, stabilizer 17 mg/kg I.P., GM-CSF I.T., vs PBS control, FIG. 3) | average tumor volumes vs vehicle controls ([1]; day 16 of treatment, 3×/week, GM-CSF 100 ng/mouse intratumoral, stabilizer 17.5 mg/kg intraperitoneal, each p<0.001) | levels of intratumoral VEGF vs vehicle control-treated mice (VEGF mRNA) | tumor size as % of the size of the control tumors [2] |
| --- | --- | --- | --- | --- | --- | --- | --- | --- |
| GM-CSF: granulocyte-macrophage colony-stimulating factor | undetectable | increased VEGF production | induced | greater reduction of tumor volume | reduction in tumor volume | significantly smaller | failed to increase |  |
| CC(=O)O[C@@]12CO[C@@H]1C[C@H](O)[C@@]1(C)C(=O)[C@H](O)C3=C(C)[C@@H](OC(=O)[C@H](O)[C@@H](NC(=O)OC(C)(C)C)c4ccccc4)C[C@@](O)([C@@H](OC(=O)c4ccccc4)[C@H]21)C3(C)C [docetaxel, reference compound] |  |  |  |  |  |  |  | approximately 50% |
